# Results as given in patent US20230313299A1, “METHOD FOR DIAGNOSIS AND/OR PROGNOSIS OF LIVER DISEASE PROGRESSION AND RISK OF HEPATOCELLULAR CARCINOMA AND DISCOVERY OF THERAPEUTIC COMPOUNDS AND TARGETS TO TREAT LIVER DISEASE AND CANCER” (UNIVERSITÉ DE STRASBOURG, priority 2020, published 2023).
# Entries after “also recorded” stand apart in the source; their conditions may differ.
# Legend:
# [1] = system: 1693-gene signature and 25-gene signature (PES); assay: Transcriptomic profiling (RNA-Seq, GSEA) of livers of DEN/CDAHFD mice; type: in vivo, mouse
# Method: ChIPmentation based ChIP-Seq and RNA next-generation sequencing (NGS). ChIPmentation-based ChIP-Seq was performed as described. RNA-Seq was performed as described. Mouse RNA-Seq data was processed as described for patient's data but was instead mapped to the mouse genome mm10 and annotated using the Gencode vM15 gene annotation. Processing of ChIPmentation data was described, and data was partially derived from BioProject PRJNA506130. Since late stage fibrosis patients have the highest HCC risk, patient tissues from late stage fibrosis (F3 and F4) samples were included for all H3K27ac analyses as well as from the external CHC RNA-Seq dataset (GSE84346)[12]. Transcriptomic data for NASH patients was derived from external expression dataset (GSE115193)[13] and data for DAA-cured patients was published in BioProject PRJNA506130[6]. The RNA-Seq data from HCV-infected liver cells was published in (GSE126831)[14].
# (§1) Analysis of gene expression of the prognostic epigenetic signature (PES) using nCounter expression or RNASeq analyses. Profiling of the PES was performed using Nanostring nCounter assay or RNASeq as described. Induction or suppression of the PES in gene expression data was determined as previously reported using the Gene Set Enrichment Analysis (GSEA), implemented in GenePattern genomic analysis toolkits. False discovery rate (FDR)<0.05 was regarded as statistically significant. […]
# [2] = system: Prognostic Epigenetic Signature (PES, 25-gene signature) in HCV Jc1-infected Huh7.5.1dif cells; assay: PES cell-based model: HCV-infected differentiated Huh7.5.1 cells, PES expression by RNA-Seq or nCounter; set-up: species or system human; details: JQ1 50 nM, Nizatidine 10 μM, Captopril 1 μM, Pioglitazone 1 μM
# Method: Cell-based models. Huh7.5.1 and human stellate LX2 cells were cultured in Dulbecco's Modified Eagle Medium (DMEM) supplemented with 10% heat-decomplemented fetal bovine serum FBS, gentamycin (0.05 mg/mL) and non-essential amino acids (complete DMEM) at 37° C. with 5% CO2. For proliferation arrest and differentiation ([…] cells), Huh7.5.1 cells were cultured in complete DMEM supplemented 1% DMSO [5]. All cell lines were certified mycoplasma-free. To analyze the PES induction […] cells were infected with HCV Jc1 (genotype 2a/2a) for a total of 10 days. Cells were then treated with Captopril (1 μM), Nizatidine (10 μM), Pioglitazone (1 μM), JQ1 (50 nM). For the FFA model, Huh7.5.1^dif cells were cocultured with 20% LX-2 cells. Following co-culture for 3 days in DMEM supplemented with 10% heat-decomplemented FBS, gentamycin and 1% DMSO at 37° C. and 5% CO2, cells were incubated with FFA (800 μM oleic acid and 400 μM palmitic acid) for 72 h.
# as §1, with “toolkits.” for “toolkits. False discovery rate (FDR)<0.05 was regarded as statistically significant.”
# [3] = system: DEN and CDAHFD-induced hepatocarcinogenesis; assay: DEN/CDAHFD NASH-fibrosis-HCC mouse model: liver disease, fibrosis and tumor burden; type: in vivo; details: DEN/CDAHFD mice
# Text: FIG. 8. Reversal of the PES poor prognosis status in vivo by a bromodomain-4 inhibitor translates into improvement of liver disease and cancer prevention (A) Schematic representation of in vivo the proof-of-concept study using a mouse model of DEN and choline-deficient, L-amino acid-defined, high-fat diet (CDAHFD)-induced hepatocarcinogenesis. (B) Transcriptomic changes of genes with significant H3K27ac modifications from livers from patients with NASH and chronic hepatitis C (CHC) as explained in FIG. 1D (overlapping genes) and corresponding changes in vehicle or JQ1-treated DEN/CDAHFD mice. (C) Venn diagram showing epigenetically and transcriptionally altered genes in CHC/NASH patients and in DEN/CDAHFD mice, that were corrected by JQ1 treatment. Genes that harbor epigenetic and transcriptomic changes were identified in CHC/NASH patients and in DEN/CDAHFD mice. Among the changed genes, the inventors analyzed whether JQ1 could revert back their H3K27ac levels and their transcript expression levels. (H) GSEA enrichments of 1693-gene signature and 25-gene signature (PES) gene sets in data shown for JQ1-treated DEN/CDAHFD mice. (D) Improvement of liver disease and prevention of HCC. The global status corresponds to the difference between low risk- and high risk-gene expression. GSEA enrichments of 1693-gene signature and 25-gene signature (PES) gene sets in data shown for JQ1-treatment on panel B. The global status corresponds to the difference between low risk- and high risk-gene expression. […] Results are expressed as means±SEM. (F) Representative macroscopic photographs of livers (×1.5 magnified), H&E and Sirius red staining of liver sections from vehicle and JQ1-treated mice. Tumor nodules are indicated by an arrowhead and are delimited by dashed lines. […] Fibrosis stage was evaluated through quantitative digital analysis of whole-scanned liver sections (collagen proportional area (CPA)) in JQ1-treated (n=3) compared with JQ1-untreated (n=3) mice. Results are expressed as means±SD.
# Example 5: Reversal of the PES poor prognosis status in vivo translates into improvement of liver disease, inhibition of fibrosis progession and cancer prevention. To investigate (1) whether the PES is modeled in animal models for liver disease and (2) reversal of the […] poor prognosis status by a compound correlates with improvement of liver disease and cancer prevention, the inventors studied the 1693 gene signature and the 25 gene subset expression in a NASH-fibrosis-HCC mouse model, in which the mice are treated with the BRD inhibitor JQ1 following development of liver disease. In this model a Choline-deficient high-fat-diet (CDHFD) diet combined with DEN, a chemical carcinogen, induces liver fibrosis progressing to HCC. […] Mice were treated with JQ1 after 6 weeks of CDAHFD feeding when liver disease developed (FIG. 8A).
Compound,GSEA enrichment of 1693-gene signature and 25-gene signature (PES) gene sets after treatment [1],Expression of H3K27ac-altered genes in patients reverted by treatment ([1]; 1007 out of 1693 genes) [%],"Reversal of PES (25-gene signature) from HCC high risk, poor prognosis status to HCC low risk, good prognosis status [2]",Tumor burden in vivo [3],Liver fibrosis measured by collagen proportionate area (CPA) ([3]; treated n=3 vs untreated n=3),Body weight ([3]; treated n=8 vs untreated n=8),Liver weight ([3]; treated n=8 vs untreated n=8),Number of tumor nodules ([3]; treated n=8 vs untreated n=8)
Cc1sc2c(c1C)C(c1ccc(Cl)cc1)=N[C@@H](CC(=O)OC(C)(C)C)c1nnc(C)n1-2 [JQ1],"correspondingly (i.e., reversely) enriched",59,Reversal of the poor prognosis/HCC high risk genes to good prognosis/HCC low risk expression; also recorded: reverted the 25-gene signature (PES),significantly reduces tumor burden,efficiently reduces liver fibrosis; also recorded: significantly (p<0.05) reduced,stable; also recorded: without altering,significantly reduced,reduced; also recorded: overall decrease in their number
CNC(=C[N+](=O)[O-])NCCSCc1csc(CN(C)C)n1 [Nizatidine],,,Reversal of the poor prognosis/HCC high risk genes to good prognosis/HCC low risk expression,,,,,
